Measurements as given in patent publication US4223039A, “Therapeutically useful N-phenylaniline derivatives” (priority 1978, dated 1980).
Counter-ions that a name gives are not always drawn.

Columns and labels:
[1] = test system: painful syndrome provoked in mice by phenylbenzoquinone; assay: animal or person; format: in vivo; conditions: for Therapeutic Index LD 50/ED 50 / therapeutic index (in words): mice; for Therapeutic Index LD 50/ED 50: LD 50 (oral)/ED 50 (phenylbenzoquinone test); for therapeutic index (in words): LD 50/ED 50
Procedure: There is used the phenylbenzoquinone test according to a technique adapted from that of Siegmund (E), Proc. Soc. Exp. Biol. Med. 1957, 95, No. 4, 729-731.
It is attempted to antagonise, by previous administration (30 minutes before) of the test compounds, the painful syndrome provoked in mice (groups of 10 animals) by interperitoneal injection of phenylbenzoquinone and characterised by intermittent contractions of the abdomen, periodic torsions of the trunk and extension of the rear paws. The number of symtoms is counted for 20 minutes after administration of the phenylbenzoquinone to the control and treated groups and the percentage protection relative to the control group calculated.
For the most interesting compounds, studied at several doses chosen in geometric progression of ratio 2, the effective doses 50% (ED 50) which reduce by 50% the effects provoked by phenylbenzoquinone are determined. These ED 50s are sorted according to their limits of confidence calculated for a probability p=0.05 according to the method of Litchfield (J. T.) and Wilcoxon (F. A.), J. Pharmacol. Exp. Ther. 1949, 96, 99-113.
Calculation of the therapeutic index (LD 50/ED 50) enables appreciation of the interest of the compounds.

[2] = Acute toxicity in mice after oral administration; conditions: mouse, in vivo, suspended in 10% gum arabic, survivors checked at 15 days
Procedure: The compounds have been administered at increasing doses (in geometric progression) to groups of five .female. SWISS, EOPS, NMRI/Han mice originating from the breeding of EVIC CEBA and of mean weight 25 g.
For oral administration, they are suspended in a 10% gum arabic solution.
The LD 50s are calculated by the method of Behrens (B) and Karber (C), (Arch. Exp. Path. Pharmakol. 1935, 177, 379-388).
The number of animals surviving in the different groups is finally checked 15 days after administration of the compounds.

[3] = Solubility in distilled water; format: physicochemical
[4] = Mus musculus, read-out: Percentage Protection

CC(=O)Oc1ccccc1C(=O)O [Aspirin, reference compound]
ED50 ([1]; Mus musculus): 60 mg/kg
inhibition in vivo at 9.4 mg/kg [1, 4]: 4%
inhibition in vivo at 18.75 mg/kg [1, 4]: 20%
inhibition in vivo at 37.5 mg/kg [1, 4]: 31%
inhibition in vivo at 75 mg/kg [1, 4]: 56%
inhibition in vivo at 150 mg/kg [1, 4]: 82%
inhibition in vivo at 300 mg/kg [1, 4]: 95%
Therapeutic Index LD 50/ED 50 [1]: 25
LD50 at 360 h [2]: 1500 mg/kg

CC(Nc1cccc(C(=O)c2ccccc2)c1)C(=O)O (centres unmarked) [LJ 843, The lysine salt of N-(3-benzoylphenyl)alanine monohydrate]
solubility in distilled water [3]: very soluble in distilled water
ED50 ([1]; Mus musculus): 25 mg/kg
inhibition in vivo at 11.75 mg/kg [1, 4]: 30%
inhibition in vivo at 23.5 mg/kg [1, 4]: 38%
inhibition in vivo at 47 mg/kg [1, 4]: 66%
inhibition in vivo at 93.75 mg/kg [1, 4]: 84%
inhibition in vivo at 187.5 mg/kg [1, 4]: 91%
Therapeutic Index LD 50/ED 50 [1]: 150
therapeutic index (in words) [1]: very favourable therapeutic index
LD50 at 360 h [2]: 3750 mg/kg

CC(Nc1cccc(C(=O)c2ccc(Cl)cc2)c1)C(=O)O (centres unmarked) [LJ 845]
inhibition in vivo at 87.5 mg/kg [1, 4]: 75%
LD50 at 360 h [2]: 1750 mg/kg

Cc1c(NCC(=O)O)cccc1C(=O)c1ccc(Cl)cc1 [LJ 846, N-[3-(4-Chlorobenzoyl)-2-methyl-phenyl]glycine]
ED50 ([1]; Mus musculus): 18 mg/kg
inhibition in vivo at 5 mg/kg [1, 4]: 6%
inhibition in vivo at 10 mg/kg [1, 4]: 40%
inhibition in vivo at 20 mg/kg [1, 4]: 48%
inhibition in vivo at 40 mg/kg [1, 4]: 75%
inhibition in vivo at 80 mg/kg [1, 4]: 90%
Therapeutic Index LD 50/ED 50 [1]: 89
therapeutic index (in words) [1]: very favourable therapeutic index
LD50 at 360 h [2]: 1600 mg/kg

O=C(O)CNc1cccc(C(=O)c2ccccc2)c1 [LJ 850]
inhibition in vivo at 33.75 mg/kg [1, 4]: 28%
LD50 at 360 h [2]: 675 mg/kg

CC(Nc1ccc(C(=O)c2ccccc2)cc1)C(=O)O (centres unmarked) [LJ 854]
ED50 ([1]; Mus musculus): 32 mg/kg
inhibition in vivo at 5.8 mg/kg [1, 4]: 6%
inhibition in vivo at 11.75 mg/kg [1, 4]: 11%
inhibition in vivo at 23.5 mg/kg [1, 4]: 25%
inhibition in vivo at 47 mg/kg [1, 4]: 84%
inhibition in vivo at 93.75 mg/kg [1, 4]: 90%
Therapeutic Index LD 50/ED 50 [1]: 58
LD50 at 360 h [2]: 1880 mg/kg

CC(Nc1ccccc1C(=O)c1ccccc1)C(=O)O (centres unmarked) [LJ 855]
ED50 ([1]; Mus musculus): 16 mg/kg
inhibition in vivo at 3.1 mg/kg [1, 4]: 10%
inhibition in vivo at 6.25 mg/kg [1, 4]: 14%
inhibition in vivo at 12.5 mg/kg [1, 4]: 37%
inhibition in vivo at 25 mg/kg [1, 4]: 73%
inhibition in vivo at 50 mg/kg [1, 4]: 92%
Therapeutic Index LD 50/ED 50 [1]: 62
LD50 at 360 h [2]: 1000 mg/kg

Cc1c(NC(C)C(=O)O)cccc1C(=O)c1ccc(Cl)cc1 (centres unmarked) [LJ 857]
inhibition in vivo at 62.5 mg/kg [1, 4]: 64%
LD50 at 360 h [2]: 1250 mg/kg

CC(Nc1ccc(C(=O)c2cccs2)cc1)C(=O)O (centres unmarked) [LJ 858]
inhibition in vivo at 93.75 mg/kg [1, 4]: 78%
LD50 at 360 h [2]: 1880 mg/kg

CC(Nc1cccc(C(=O)c2cccs2)c1)C(=O)O (centres unmarked) [LJ 859]
inhibition in vivo at 125 mg/kg [1, 4]: 77%
LD50 at 360 h [2]: 2500 mg/kg

Cc1c(NCC(=O)O)cccc1C(=O)c1ccccc1 [LJ 861]
ED50 ([1]; Mus musculus): 65 mg/kg
inhibition in vivo at 20 mg/kg [1, 4]: 24%
inhibition in vivo at 40 mg/kg [1, 4]: 36%
inhibition in vivo at 80 mg/kg [1, 4]: 52%
inhibition in vivo at 160 mg/kg [1, 4]: 90%
inhibition in vivo at 320 mg/kg [1, 4]: 96%
Therapeutic Index LD 50/ED 50 [1]: 20
LD50 at 360 h [2]: 1300 mg/kg

CN(CC(=O)O)c1cccc(C(=O)c2ccccc2)c1 [LJ 862, N-(3-Benzoylphenyl)-N-methyl-glycine]
ED50 ([1]; Mus musculus): 85 mg/kg
inhibition in vivo at 20 mg/kg [1, 4]: 6%
inhibition in vivo at 40 mg/kg [1, 4]: 24%
inhibition in vivo at 80 mg/kg [1, 4]: 49%
inhibition in vivo at 160 mg/kg [1, 4]: 78%
inhibition in vivo at 320 mg/kg [1, 4]: 89%

C[C@@H](C(=O)O)N(C(=O)c1ccc(Cl)cc1)c1cccc(C(=O)c2ccccc2)c1 [LJ 863, N-(3-Benzoylphenyl)-N-(4-chlorobenzoyl)-alanine]
inhibition in vivo at 320 mg/kg [1, 4]: 45%

O=C(c1ccccc1)c1cccc(NC(C(=O)O)c2ccccc2)c1 (centres unmarked) [LJ 864]
inhibition in vivo at 40 mg/kg [1, 4]: 7%
inhibition in vivo at 80 mg/kg [1, 4]: 22%
inhibition in vivo at 160 mg/kg [1, 4]: 31%
inhibition in vivo at 320 mg/kg [1, 4]: 59%

Cc1ccc(C(=O)c2cccc(NC(C)C(=O)O)c2)cc1 (centres unmarked) [LJ 867]
ED50 ([1]; Mus musculus): 32 mg/kg
inhibition in vivo at 8.2 mg/kg [1, 4]: 6%
inhibition in vivo at 16.4 mg/kg [1, 4]: 32%
inhibition in vivo at 32.75 mg/kg [1, 4]: 52%
inhibition in vivo at 65.5 mg/kg [1, 4]: 70%
inhibition in vivo at 131 mg/kg [1, 4]: 92%
inhibition in vivo at 262 mg/kg [1, 4]: 97%
Therapeutic Index LD 50/ED 50 [1]: 82
therapeutic index (in words) [1]: very favourable therapeutic index
LD50 at 360 h [2]: 2620 mg/kg

CC(Nc1ccc(Cl)c(C(=O)c2ccccc2)c1)C(=O)O (centres unmarked) [LJ 868]
ED50 ([1]; Mus musculus): > 180 mg/kg
inhibition in vivo at 180 mg/kg [1, 4]: 32%
Therapeutic Index LD 50/ED 50 [1]: < 10
LD50 at 360 h [2]: 1800 mg/kg

Cc1ccc(C(=O)c2ccccc2)cc1NC(C)C(=O)O (centres unmarked) [LJ 869]
ED50 ([1]; Mus musculus): 28 mg/kg
inhibition in vivo at 8.1 mg/kg [1, 4]: 12%
inhibition in vivo at 16.25 mg/kg [1, 4]: 36%
inhibition in vivo at 32.5 mg/kg [1, 4]: 51%
inhibition in vivo at 65 mg/kg [1, 4]: 82%
inhibition in vivo at 130 mg/kg [1, 4]: 96%
Therapeutic Index LD 50/ED 50 [1]: 46
LD50 at 360 h [2]: 1300 mg/kg

Cc1ccc(C(=O)c2ccccc2)cc1NCC(=O)O [LJ 871]
ED50 ([1]; Mus musculus): 120 mg/kg
inhibition in vivo at 20 mg/kg [1, 4]: 3%
inhibition in vivo at 40 mg/kg [1, 4]: 22%
inhibition in vivo at 80 mg/kg [1, 4]: 34%
inhibition in vivo at 160 mg/kg [1, 4]: 59%
inhibition in vivo at 320 mg/kg [1, 4]: 60%

C[C@H](Nc1cccc(C(=O)c2ccccc2)c1)C(=O)O [LJ 874, N-(3-Benzoylphenyl)-alanine]
ED50 ([1]; Mus musculus): 35 mg/kg
inhibition in vivo at 7.5 mg/kg [1, 4]: 3%
inhibition in vivo at 15 mg/kg [1, 4]: 20%
inhibition in vivo at 30 mg/kg [1, 4]: 48%
inhibition in vivo at 60 mg/kg [1, 4]: 61%
inhibition in vivo at 120 mg/kg [1, 4]: 92%
Therapeutic Index LD 50/ED 50 [1]: 71
therapeutic index (in words) [1]: very favourable therapeutic index
LD50 at 360 h [2]: 2500 mg/kg
